Assay results: patent publication US20220289732A1, “HETEROCYCLIC WDR5 INHIBITORS AS ANTI-CANCER COMPOUNDS” (NOVARTIS AG, priority 2019, published 2022)
Read-outs that look alike come from different tables or passages of the source.

How the values were obtained:
[1] = target: wild type MLL1 four-member complex (MLL1-4C) (Homo sapiens, UniProt P61964); experiment: MLL1 LC-MS assay (SAH production); format: biochemical; details: read-out: (b) MLL LCMS Peptide Val.v.1 Qualified AC50
Protocol: The compounds of the present disclosure were serially and separately diluted 3-fold in DMSO to obtain a total of eight or twelve concentrations. Then the test compounds at each concentration (120 nL of each) were transferred by Mosquito into white Proxiplate plus 384-well microplate (PerkinElmer). Solutions (6 μL) of 60 nM wild type MLL1 four-member complex (MLL1-4C) and 5 μM SAM in the reaction buffer (20 mM Tris-HCl, pH8.0, 0.01% Tween 20, 1 mM DTT, 10 mM MgCl2, 0.01% BSA) were added to the wells that were then incubated with the test compound for 20 min. A 6 μL solution of 20 μM of the peptide substrate H3K4me0 (histone H3[1-21]-Biotin) in the reaction buffer was added to initiate each reaction. The final components in the reaction solution include 30 nM MLL1-4C, 2.5 μM SAM, and 10 μM H3K4me0 with varying concentration of the compounds. A positive control consisted of 30 nM MLL1-4C, 2.5 μM SAM, and 10 μM substrate in the absence of the test compound, and a negative control consisted of 2.5 μM SAM, and 10 μM substrate only. Each reaction was incubated at rt for 120 min, then stopped by addition of 3 μL per of quench solution (2.5% TFA with 320 nM d4-SAH). The reaction mixture was centrifuged (Eppendorf centrifuge 5810, Rotor A-4-62) for 2 min at 2000 rmp. The SAH production from the enzymatic assays were monitored by LC-MS/MS on an API 4000 triple quadrupole mass spec with Turbolon Spray (Applied Biosystem) coupled with Prominenece UFLC (Shimazu). The level of SAH production were then normalized based on the values coming from the positive and negative controls to give percent enzyme activities. The data were then fit to a dose response equation using the program Helios (Novartis) to get the IC50 values of the test compound. Helios is a Novartis in-house assay data analysis software using the methods described by Normolle, D. P., Statistics in Medicine, 12:2025-2042 (1993); Formenko, I. et al., Computer Methods and programs in Biomedicine, 82, 31-37 (2006); Sebaugh, J. L., Pharmaceutical Statistics, 10:128-134 (2011); Kelly, C. et al., Biometrics, 46(4):1071-1085 (1990); and Kahm, M, et al., Journal of Statistical Software, 33(7):(2010) (grofit: Fitting Biological Growth Curves with R, pages 1-21, available at http://www.jstatsoft.org/).

[2] = target: WDR5 (Homo sapiens, UniProt P61964); experiment: WDR5 HTRF binding assay; details: read-out: (a) WDR5 HTRF Pep Val v.1[Inhibitor/IC50]Qualified AC50
Protocol: The compounds were serially diluted 3-fold in DMSO to obtain a total of twelve concentrations. Then the test compounds at each concentration (90 nL of each) were transferred by Mosquito in the white Proxiplate plus 384-well microplate (Perkin Elmer). The assay mixture (typical 9 μL) containing 6 nM WDR5 and 20 nM Biotin-MLL1 WIN peptide (3762-3773) in the assay buffer (25 mM Hepes, pH7.5, 0.05% Tween 20, 2 mM DTT, 100 mM NaCl, 0.1% BSA) were added to the wells. For counter assay, a 9 μL solution of 15 nM Biotin-PEG-His peptide was added into the wells. After 20 min incubation at rt, a 3 μL detection solution containing 14 μg/ml Phycolink Streptavidin Allophycocyanin (Prozyme), 2 nM Anti-His-Eu (PerkinElmer) in assay buffer was then added. After 1 hr incubation, the plate was read in the EnVision reader (PerkinElmer) using the HTRF protocol (The protocol set-up: Lance/Delfia dual enhancer mirror, excitation at 320 UV2 (TRF), emission at APC665, 2nd emission at EuropiμM 615). HTRF signals were normalized based on the reading coming from the positive (maximum signal control) and negative controls (minimum signal control) to give percentage of activities left. The data were then fit to a dose response equation using the program Helios (Novartis) to get the IC50 values. Helios is a Novartis in-house assay data analysis software using the methods described by Normolle, D. P., Statistics in Medicine, 12:2025-2042 (1993); Formenko, I. et al., Computer Methods and programs in Biomedicine, 82, 31-37 (2006); Sebaugh, J. L., Pharmaceutical Statistics, 10:128-134 (2011); Kelly, C. et al., Biometrics, 46(4):1071-1085 (1990); and Kahm, M, et al., Journal of Statistical Software, 33(7):(2010) (grofit: Fitting Biological Growth Curves with R, pages 1-21, available at http://www.jstatsoft.org/).

[3] = test system: MV4-11 cells; experiment: MV4-11 6-day cell growth CTG (CellTiter-Glo) assay; format: cell-based; details: 6 days, read-out: (c) MLL/WDR5 cell proliferation assay//MLL/WDR5 proliferation MV4:11 Qualified AC50
Protocol: MV4-11 6-Day Cell Growth CTG (CellTiter-Glo) Assay
Acute myeloid leukemia cell MV4-11 (ATCC® CRL-9591™) was cultured with RPMI 1640 medium (Thermo Fisher Scientific, cat #11875) supplemented with 10% FBS (Thermo Fisher Scientific, cat #10099141) in humidified incubator at 37° C., 5% CO2. To assess the effect of WDR5 inhibitor on cell growth, the compound of the present invention was dissolved in DMSO and serially diluted at 1:3 for 12 points starting from 10 mM then 200 nL for the replicate of each dose per well was dispensed to Viewplate-384 Black (Perkin Elmer). Exponentially growing MV4-11 cells were seeded at the density of 300 cells per well in 40 μL to the plate, so the final compound working concentration starts from 50 μM. After 6 days, 40 μL CellTiter-Glo (Promega, cat #G7573) was added into the cell culture well and luminescence was read with Envision (Perkin Elmer) to determine the viable cells. The percentage inhibition was calculated against the samples treated with DMSO only and the data were used for dose response curve fitting in GraphPad Prism to get the IC50 of representative compound of present invention, which reflects the inhibition of WDR5 activity in the proliferation of MV4;11.

Row | SMILES | AC50 [1] | IC50 [2] | AC50 ([3]; Homo sapiens, MV4-11, 144 h) | AC50 [3]
1 | CCOc1cc(C(C)N2CCc3c(cc(Cn4ccnc4C)cc3-c3cn(C)nc3C)C2=O)ncc1C#N (racemic) [Example 261, 6-(1-(5-(1,3-dimethyl-1H-pyrazol-4-yl)-7-((2-methyl-1H-imidazol-1-yl)methyl)-1-oxo-3,4-dihydroisoquinolin-2(1H)-yl)ethyl)-4-ethoxynicotinonitrile] | 10 to 1000 nM | < 10 nM | 10 to 1000 nM | –
2 | CCOc1cc(C(C)N2CCc3c(cc(Cn4ccnc4C)cc3-c3cn(C)nc3C)C2=O)ncc1C#N (racemic) [Example 262, 6-(1-(5-(1,3-dimethyl-1H-pyrazol-4-yl)-7-((2-methyl-1H-imidazol-1-yl)methyl)-1-oxo-3,4-dihydroisoquinolin-2(1H)-yl)ethyl)-4-ethoxynicotinonitrile] | 10 to 1000 nM | < 10 nM | – | < 10 nM
3 | CCOc1cc([C@H](C)N2CCc3c(Cl)cc(Cn4ccnc4NC)cc3C2=O)ncc1C#N (single isomer, unassigned) [Example 3] | 10 to 1000 nM | < 10 nM | 10 to 1000 nM | –
4 | CNc1nccn1Cc1cc(CN2CCOCC2)c2c(c1)C(=O)N([C@@H](C)c1cc(OC)c(F)cn1)CC2 (single isomer, unassigned) [Example 7] | 10 to 1000 nM | < 10 nM | 10 to 1000 nM | –
5 | CCOc1cc([C@H](C)N2CCc3c(CN(C)C)cc(Cn4ccnc4NC)cc3C2=O)ncc1F (single isomer, unassigned) [Example 19] | 10 to 1000 nM | 10 to 1000 nM | 10 to 1000 nM | –
6 | CNc1nccn1Cc1cc(CN2CC(O)C2)c2c(c1)C(=O)N([C@@H](C)c1cc(OC)c(F)cn1)CC2 (single isomer, unassigned) [Example 51] | 10 to 1000 nM | < 10 nM | 10 to 1000 nM | –
7 | CNc1nccn1Cc1cc2c(c(-c3cc([C@@H](C)O)cnc3Cl)c1)CCN(Cc1ccc(F)c(OC)c1)C2=O (single isomer, unassigned) [Example 75] | 10 to 1000 nM | < 10 nM | 10 to 1000 nM | –
8 | CNc1nccn1Cc1cc2c(c(-c3cc([C@H](C)O)cnc3Cl)c1)CCN(Cc1ccc(F)c(OC)c1)C2=O (single isomer, unassigned) [Example 76] | 10 to 1000 nM | < 10 nM | 10 to 1000 nM | –
9 | CNc1nccn1Cc1cc2c(c(C3CC3)c1)CCN([C@@H](C)c1cnc(F)c(OC)c1)C2=O (single isomer, unassigned) [Example 78] | 10 to 1000 nM | < 10 nM | 10 to 1000 nM | –
10 | CCOc1cc([C@H](C)N2CCc3c(cc(Cn4ccnc4NC)cc3N3CCCC3)C2=O)ncc1F (single isomer, unassigned) [Example 88] | 10 to 1000 nM | < 10 nM | 10 to 1000 nM | –
11 | CNc1nccn1Cc1cc2c(c(N3CC(OC)C3)c1)CCN([C@@H](C)c1cc(OC)c(F)cn1)C2=O (single isomer, unassigned) [Example 90] | 10 to 1000 nM | 10 to 1000 nM | 10 to 1000 nM | –
12 | CNc1nccn1Cc1ccc2c(c1)C(=O)N([C@@H](C)c1cnc(F)c(OC)c1)CC2 (single isomer, unassigned) [Example 94] | 10 to 1000 nM | 10 to 1000 nM | 10 to 1000 nM | –
13 | CCOc1cc([C@H](C)N2CCc3c(cc(Cn4ccnc4C)cc3-c3nc(C)nn3C)C2=O)ncc1C#N (single isomer, unassigned) [Example 264] | 10 to 1000 nM | < 10 nM | 10 to 1000 nM | –
14 | CCOc1cc([C@H](C)N2CCc3c(cc(Cn4ccnc4C)cc3-n3nc(C)nc3C)C2=O)ncc1C#N (single isomer, unassigned) [Example 265] | 10 to 1000 nM | < 10 nM | 10 to 1000 nM | –
15 | CCOc1cc([C@H](C)N2CCc3c(cc(Cn4ccnc4C)cc3[C@@H]3CCCN3C)C2=O)ncc1C#N (single isomer, unassigned) [Example 266] | 1000 to 25000 nM | 1000 to 25000 nM | 1000 to 25000 nM | –
16 | CCOc1cc([C@H](C)N2CCc3c(cc(Cn4ccnc4C)cc3[C@H]3CCCN3C)C2=O)ncc1C#N (single isomer, unassigned) [Example 267] | 10 to 1000 nM | < 10 nM | 10 to 1000 nM | –
17 | CNc1nccn1Cc1ccc2cnn(C(C)c3cnc(F)c(OC)c3)c(=O)c2c1 (stereo not shown) [Example 109, 2-(1-(6-fluoro-5-methoxypyridin-3-yl)ethyl)-7-((2-(methylamino)-1H-imidazol-1-yl)methyl)phthalazin-1(2H)-one] | 10 to 1000 nM | 10 to 1000 nM | – | –
18 | CNc1nccn1Cc1ccc2ncn(C(C)c3cnc(F)c(OC)c3)c(=O)c2c1 (stereo not shown) [Example 110, 3-(1-(6-fluoro-5-methoxypyridin-3-yl)ethyl)-6-((2-(methylamino)-1H-imidazol-1-yl)methyl)quinazolin-4(3H)-one] | 10 to 1000 nM | 10 to 1000 nM | – | –
19 | CCOc1cc(C(C)N2CCc3c(cc(CCN(C)CC)cc3C3=CCNCC3)C2=O)ncc1C#N (stereo not shown) [Example 159, 4-ethoxy-6-(1-(7-(2-(ethyl(methyl)amino)ethyl)-1-oxo-5-(1,2,3,6-tetrahydropyridin-4-yl)-3,4-dihydroisoquinolin-2(1H)-yl)ethyl)nicotinonitrile] | 1000 to 25000 nM | 10 to 1000 nM | – | –
20 | CCOc1cc(C(C)N2CCc3c(cc(CCN(C)CC)cc3-n3cccn3)C2=O)ncc1C#N (stereo not shown) [Example 209] | 10 to 1000 nM | 10 to 1000 nM | – | –
21 | CCOc1cc(CN2CCc3c(cc(Cn4ccnc4C)cc3-c3cc(C)nn3C)C2=O)ncc1C#N [Example 300] | 10 to 1000 nM | < 10 nM | – | –
22 | CCOc1cc(CN2CCc3c(cc(Cn4ccnc4C)cc3-c3cn(S(C)(=O)=O)nc3C)C2=O)ncc1C#N [Example 301] | 10 to 1000 nM | < 10 nM | – | –
23 | CCOc1cc([C@H](C)N2CCc3c(cc(Cn4ccnc4C)cc3-c3c[nH]nc3C)C2=O)ncc1C#N [Example 302] | – | < 10 nM | – | –
